Key:
Type in all cases: nucleic-acid assay
Nucleic Acid [1] = assay: (§1) DNA hybridizing activity at single stranded DNA assessed as thermal stability of duplexes formed between compound and complimentary ssDNA by measuring melting temperature at 4 uM in presence of 10 mM pH 7.2 sodium phosphate buffer containing 100 mM NaCl by UV based melting experiment
Nucleic Acid [2] = assay: as §1, with “measuring change in” for “measuring”, “experiment relative to untreated control” for “experiment”
Nucleic Acid [3] = assay: (§2) DNA hybridizing activity at single stranded RNA assessed as thermal stability of duplexes formed between compound and complimentary ssRNA by measuring melting temperature at 4 uM in presence of 10 mM pH 7.2 sodium phosphate buffer containing 100 mM NaCl by UV based melting experiment
Nucleic Acid [4] = assay: as §2, with “measuring change in” for “measuring”, “experiment relative to untreated control” for “experiment”
Nucleic Acid [5] = assay: (§3) DNA hybridizing activity at 22 bp double stranded DNA assessed as thermal stability of duplexes formed between compound and complimentary dsDNA by measuring melting temperature at 1.5 uM in presence of 7 mM pH 5.5 sodium phosphate buffer containing 140 mM K, 10 mM MgCl2 by UV based melting experiment
Nucleic Acid [6] = assay: as §3, with “measuring change in” for “measuring”

Row | Structure (SMILES) | Tm (Nucleic Acid [1]) [°C] | ΔTm (Nucleic Acid [2]) [°C] | Tm (Nucleic Acid [3]) [°C] | ΔTm (Nucleic Acid [4]) [°C] | Tm (Nucleic Acid [5]) [°C] | ΔTm (Nucleic Acid [6]) [°C]
1 | Cc1cn([C@H]2C[C@H](OP(=O)(O)OC[C@H]3O[C@@H](n4cc(C)c(=O)[nH]c4=O)C[C@@H]3OP(=O)(O)OC[C@H]3O[C@@H](n4cc(C)c(=O)[nH]c4=O)C[C@@H]3O[P@@](=O)(OC[C@H]3O[C@@H](n4cc(C)c(=O)[nH]c4=O)C[C@@H]3OP(=O)(O)OC[C@H]3O[C@@H](n4cc(C)c(=O)[nH]c4=O)C[C@@H]3OP(=O)(O)OC[C@H]3O[C@@H](n4cc(C)c(=O)[nH]c4=O)C[C@@H]3OP(=O)(O)OC[C@H]3O[C@@H](n4ccc(N)nc4=O)C[C@@H]3OP(=O)(O)OC[C@H]3O[C@@H](n4ccc(N)nc4=O)C[C@@H]3OP(=O)(O)OC[C@H]3O[C@@H](n4ccc(N)nc4=O)C[C@@H]3OP(=O)(O)O)SCCN3CCNCC3)[C@@H](COP(=O)(O)O[C@H]3C[C@H](n4ccc(N)nc4=O)O[C@@H]3COP(=O)(O)O[C@H]3C[C@H](n4ccc(N)nc4=O)O[C@@H]3COP(=O)(O)O[C@H]3C[C@H](n4ccc(N)nc4=O)O[C@@H]3CO)O2)c(=O)[nH]c1=O | 45 | 3 | 46 | 0 | 28 | 3
2 | Cc1cn([C@H]2C[C@H](OP(=O)(O)OC[C@H]3O[C@@H](n4cc(C)c(=O)[nH]c4=O)C[C@@H]3OP(=O)(O)OC[C@H]3O[C@@H](n4cc(C)c(=O)[nH]c4=O)C[C@@H]3O[P@](=O)(OC[C@H]3O[C@@H](n4cc(C)c(=O)[nH]c4=O)C[C@@H]3OP(=O)(O)OC[C@H]3O[C@@H](n4cc(C)c(=O)[nH]c4=O)C[C@@H]3OP(=O)(O)OC[C@H]3O[C@@H](n4cc(C)c(=O)[nH]c4=O)C[C@@H]3OP(=O)(O)OC[C@H]3O[C@@H](n4ccc(N)nc4=O)C[C@@H]3OP(=O)(O)OC[C@H]3O[C@@H](n4ccc(N)nc4=O)C[C@@H]3OP(=O)(O)OC[C@H]3O[C@@H](n4ccc(N)nc4=O)C[C@@H]3OP(=O)(O)O)SCCCCCCN)[C@@H](COP(=O)(O)O[C@H]3C[C@H](n4ccc(N)nc4=O)O[C@@H]3COP(=O)(O)O[C@H]3C[C@H](n4ccc(N)nc4=O)O[C@@H]3COP(=O)(O)O[C@H]3C[C@H](n4ccc(N)nc4=O)O[C@@H]3CO)O2)c(=O)[nH]c1=O | 37 | -5 | 41 | -5 | 23 | -3
3 | Cc1cn([C@H]2C[C@H](OP(=O)(O)OC[C@H]3O[C@@H](n4cc(C)c(=O)[nH]c4=O)C[C@@H]3OP(=O)(O)OC[C@H]3O[C@@H](n4cc(C)c(=O)[nH]c4=O)C[C@@H]3O[P@](=O)(OC[C@H]3O[C@@H](n4cc(C)c(=O)[nH]c4=O)C[C@@H]3OP(=O)(O)OC[C@H]3O[C@@H](n4cc(C)c(=O)[nH]c4=O)C[C@@H]3OP(=O)(O)OC[C@H]3O[C@@H](n4cc(C)c(=O)[nH]c4=O)C[C@@H]3OP(=O)(O)OC[C@H]3O[C@@H](n4ccc(N)nc4=O)C[C@@H]3OP(=O)(O)OC[C@H]3O[C@@H](n4ccc(N)nc4=O)C[C@@H]3OP(=O)(O)OC[C@H]3O[C@@H](n4ccc(N)nc4=O)C[C@@H]3OP(=O)(O)O)SCCCCCN)[C@@H](COP(=O)(O)O[C@H]3C[C@H](n4ccc(N)nc4=O)O[C@@H]3COP(=O)(O)O[C@H]3C[C@H](n4ccc(N)nc4=O)O[C@@H]3COP(=O)(O)O[C@H]3C[C@H](n4ccc(N)nc4=O)O[C@@H]3CO)O2)c(=O)[nH]c1=O | 39 | -3 | 42 | -4 | 24 | -2

— ChEMBL document CHEMBL2057188, “Hybridizing ability and nuclease resistance profile of backbone modified cationic phosphorothioate oligonucleotides” (Bioorg Med Chem, 2012)
